Data reported in US20220296623A1, “REDUCED NICOTINAMIDERIBOSIDES FOR TREATING OR PREVENTING KIDNEY DISEASE” (SOCIETE DES PRODUITS NESTLE S.A., priority 2019, published 2022).
Structures can show the parent of a compound that is named as a salt.

Key:
[1] = Stability of NRH or NR spiked in isolated mouse plasma; format: in vitro ADME; conditions: 2 h of incubation
Text: (§1) Levels of NRH and other NAD-related metabolites in biological samples were obtained by using a cold liquid-liquid extraction using a mixture of methanol:water:chloroform in 5:3:5 (v/v), from which the polar phase was recovered for hydrophilic interaction ultra-high performance liquid chromatography mass spectrometry (UHPLC-MS) analysis. The UHPLC consisted of a binary pump, a cooled autosampler, and a column oven (DIONEX Ultimate 3000 UHPLC+ Focused, Thermo Scientific), connected to a triple quadrupole spectrometer (TSQ Vantage, Thermo Scientific) equipped with a heated electrospray ionisation (H-ESI) source. Of each sample, 2 μL were injected into the analytical column (2.1 mm×150 mm, 5 μm pore size, 200 Å HILICON iHILIC®-Fusion(P)), guarded by a pre-column (2.1 mm×20 mm, 200 Å HILICON iHILIC®-Fusion(P) Guard Kit) operating at 35° C. The mobile phase (10 mM ammonium acetate at pH 9, A, and acetonitrile, B) was pumped at 0.25 mL/min flow rate over a linear gradient of decreasing organic solvent (0.5-16 min, 90-25% B), followed by re-equilibration for a total run time of 30 min. The MS operated in positive mode at 3500 V with multiple reaction monitoring (MRM). The software Xcalibur v4.1.31.9 (Thermo Scientific) was used for instrument control, data acquisition and processing. Retention time and mass detection was confirmed by authentic standards.
(§2) NR degradation to NAM has been proposed as a limitation for its pharmacological efficacy. To evaluate whether NRH was also susceptible to degradation to NAM, we spiked NRH or NR in isolated mouse plasma. […] We also tested the stability of NRH in other matrixes.

[2] = Stability in FBS supplemented media; format: in vitro ADME
Text: as §2

[3] = system: NAD+ levels in liver, muscle and kidney; assay: Tissue NAD+ levels after intraperitoneal injection of NR or NRH; format: in vivo, mice; conditions: IP 500 mg/kg, after 1 h
Method: (§3) The above results prompted us to test whether NRH could act as an effective NAD+ precursor in vivo. For this, we first intraperitoneally (IP) injected mice with either NR or NRH (500 mg/kg).

[4] = Circulating NAM, NRH and NR after intraperitoneal injection; format: in vivo, mice; conditions: IP 500 mg/kg
Text: as §1, §3

[5] = design: species or system mice; conditions: mouse, in vivo, po
Text: as §1
Oral administration of NRH led to very similar results to those observed after IP administration. […] In contrast, NR levels were undetectable at 1 h after NR administration. As expected, NR treatment led to large increases in circulating NAM, which where ˜4-fold higher than those observed after NRH treatment.

[6] = system: NRK1; assay: NAD+ levels in primary hepatocytes from control or NRK1 knockout mice; conditions: 1 hour of treatment

In the case of `NC(=O)c1ccc[n+]([C@@H]2O[C@H](CO)[C@@H](O)[C@H]2O)c1` [NR, 1-b-D-ribofuranosyl-3-pyridinecarboxamide salt, reference compound], the “compound levels in isolated mouse plasma” value [1] is reported as “decayed in plasma”, the “generation of NAM in isolated mouse plasma” value [1] is reported as “increase in NAM” and the “degradation to NAM in FBS supplemented media” value [2] is reported as “as occurs with NR”. The “NAD+ levels in kidney” value [3] was “increased NAD+ levels”, the “NAD+ levels in liver” value [3] was “increased NAD+ levels” and the “NAD+ levels in muscle” value [3] was “increased NAD+ levels”. For the same molecule, the “NAM levels in circulation” value [4] was “highly increased in circulation”, the “circulating NAM after NR treatment relative to NRH treatment” value ([5]; C57BI/6NTac, 1 h) was ~4 fold and the “administered compound in plasma” value [5] was “undetectable”. For the same molecule, the “NAD+ levels in NRK1KO derived primary hepatocytes” value [6] was “failed to increase NAD+ levels”.
